Measurements reported in PMC12735921, “Evaluation of Antiproliferative Activity and Molecular Modeling Studies of Some Novel Benzimidazolone-Bridged Hybrid Compounds” (Pharmaceuticals, 2025).

Assays:
[1] = tested on: A549 cells; assay: MTT cell viability assay, A549; format: cell-based, human
Description: (§1) Cell viability assay was performed on the human lung cancer (A549) (ATCC CCL-185), human breast cancer (MCF-7) (ATCC-HTB-22), cervical cancer (HeLa) (ATCC-CCL-2), and human embryonic kidney 293 (HEK293) (ATCC-CRL-1573) cell lines, which were purchased from Deutsche Sammlung von Mikroorganismen und Zellkulturen (DSMZ, Braunschweig, Germany). The cells were maintained in Dulbecco’s modified Eagle’s medium (DMEM), supplemented with 10% fetal bovine serum (FBS), 2 mM L-glutamine, 100 U/mL penicillin, and 100 mg/L streptomycin (Biochrom AG, Berlin, Germany) at 37 °C in a humidified atmosphere of 5% CO2.
(§2) The cytotoxic effect was determined by the MTT (3-(4,5-dimethyl-2-thiazolyl)-2,5-diphenyl-2H-tetrazolium bromide) cell viability assay. Cells were seeded at an initial concentration of 1 × 10^5 cells/mL in 96-well microplates. Cells were then treated with different concentrations (0.5, 5, 10, 25, 50, 100 and 200 µM) of the novel synthesized compounds for 48 h. After the incubation period, the formed formazan crystals were dissolved in dimethyl sulfoxide (DMSO), and the optical density (OD) of the compounds was measured at 570 nm using a spectrophotometer (BMG Labtech, Ortenberg, Germany). Cytotoxicity was expressed as an increase in the mean percentage of cytotoxicity relative to the unexposed control ± standard deviation (SD). […] Control values were set at 0% cytotoxicity. IC50 was calculated by fitting the data to a sigmoidal curve using a four-parameter logistic model and was presented as an average of three independent measurements. […] Doxorubicin was used as a positive control. Each sample was tested in triplicate.
(§3) To evaluate the selectivity of the tested compound(s) toward cancer cells over normal cells, the Selectivity Index (SI) was calculated using the following formula:SI = IC50 (normal cells)/IC50 (cancer cells)
(§4) An SI value greater than 2 was considered to indicate selective cytotoxicity, while values below 2 were interpreted as non-selective. Higher SI values reflect greater therapeutic potential due to reduced toxicity toward normal cells.

[2] = tested on: MCF-7 cells; assay: MTT cell viability assay, MCF-7; format: cell-based, human
Description: as §1, §2, §3, §4

[3] = tested on: HeLa cells; assay: MTT cell viability assay, HeLa; format: cell-based, human
Description: as §1, §2, §3, §4

[4] = tested on: HEK 293 cells; assay: MTT cell viability assay, non-cancerous HEK 293; format: cell-based, human; settings: Homo sapiens, HEK293, 48 h, mean ± SD, n = 3
Description: as §1
The cytotoxic effect was determined by the MTT (3-(4,5-dimethyl-2-thiazolyl)-2,5-diphenyl-2H-tetrazolium bromide) cell viability assay. Cells were seeded at an initial concentration of 1 × 10^5 cells/mL in 96-well microplates. Cells were then treated with different concentrations (0.5, 5, 10, 25, 50, 100 and 200 µM) of the novel synthesized compounds for 48 h. After the incubation period, the formed formazan crystals were dissolved in dimethyl sulfoxide (DMSO), and the optical density (OD) of the compounds was measured at 570 nm using a spectrophotometer (BMG Labtech, Ortenberg, Germany). Cytotoxicity was expressed as an increase in the mean percentage of cytotoxicity relative to the unexposed control ± standard deviation (SD). […] Control values were set at 0% cytotoxicity. IC50 was calculated by fitting the data to a sigmoidal curve using a four-parameter logistic model and was presented as an average of three independent measurements. […] Each sample was tested in triplicate.

[5] = tested on: A549, MCF-7, and HeLa cells; assay: MTT cell viability assay, ranges stated across the cancer cell lines; format: cell-based; settings: Homo sapiens, range over the three cancer cell lines, 48 h
Description: as §1
The cytotoxic effect was determined by the MTT (3-(4,5-dimethyl-2-thiazolyl)-2,5-diphenyl-2H-tetrazolium bromide) cell viability assay. Cells were seeded at an initial concentration of 1 × 10^5 cells/mL in 96-well microplates. […] After the incubation period, the formed formazan crystals were dissolved in dimethyl sulfoxide (DMSO), and the optical density (OD) of the compounds was measured at 570 nm using a spectrophotometer (BMG Labtech, Ortenberg, Germany). Cytotoxicity was expressed as an increase in the mean percentage of cytotoxicity relative to the unexposed control ± standard deviation (SD). […] IC50 was calculated by fitting the data to a sigmoidal curve using a four-parameter logistic model and was presented as an average of three independent measurements. […]

## O=c1n(CN2CCN(c3ccc(Cl)cc3)CC2)c2cc(Cl)c(Cl)cc2n1CN1CCN(c2ccc(Cl)cc2)CC1 [Compound 9, 5,6-Dichloro-1,3-bis((4-(4-chlorophenyl)piperazin-1-yl)methyl)-1H-benzo[d]imidazol-2(3H)-one]
[1]; Homo sapiens, A549, MTT, 48 h, mean ± SD, n = 3
  IC50: 9.6 ± 0.55 µM
[1]; SI = IC50 (HEK 293)/IC50 (A549)
  A549 Selectivity Index (SI): 1.58
[2]; Homo sapiens, MCF7, MTT, 48 h, mean ± SD, n = 3
  IC50: 11.2 ± 0.46 µM
[2]; SI = IC50 (HEK 293)/IC50 (MCF-7)
  MCF-7 Selectivity Index (SI): 1.35
[3]; Homo sapiens, HeLa, MTT, 48 h, mean ± SD, n = 3
  IC50: 8.5 ± 0.49 µM
[3]; SI = IC50 (HEK 293)/IC50 (HeLa)
  HeLa Selectivity Index (SI): 1.78
[4]
  IC50: 15.2 ± 0.87 µM
[5]
  IC50: 8.5 to 11.2 µM
